Source: patent US20250295711A1, “FOOD SUPPLEMENT” (FONTERRA CO-OPERATIVE GROUP LIMITED, priority 2022, published 2025)
Marks after values point to notes of the source that are not given here.

Assays:
[1] = tested on: CUMS rats; assay: Open field test in CUMS (chronic unpredictable mild stress) rats; assay type: in vivo, rat; details: for Total Distance Travelled in Open Field Test, After CUMS only (x ± S): after 40 days CUMS; for Total Distance Travelled in Open Field Test, After CUMS only (x ± S) / Vertical Movement (Number of Times Standing Up) in Open Field Test, After CUMS (x ± S): before intervention; for Vertical Movement (Number of Times Standing Up) in Open Field Test, After intervention (x ± S): after CUMS with intervention; for Total Distance Travelled in Open Field Test, After CUMS + intervention (x ± S): after further 40 days CUMS with intervention; for Total Distance Travelled in Open Field Test, Base line (x ± S) / Vertical Movement (Number of Times Standing Up) in Open Field Test, Base line (x ± S): before CUMS and before intervention
Experimental: (§1) A series of experiments were conducted using the chronic unpredictable mild stress (CUMS) rodent model. Rats were exposed daily to any two of the following mild physiological stresses selected at random: • 12 hours of water deprivation • 12 hours of food deprivation • 8 hours of damp sawdust • 24 hours of reversed light/dark cycle • 2 minutes of tail pinching • 1 hour of 60 Hz noise • 15 minutes of cage shaking • Swimming in 4° C. water for 5-10 minutes • 2 hours of restraining.
(§2) Six groups of rats were assessed: • 1. Control rats: rats raised normally without stress treatments and without nutritional or drug interventions. • 2. CUMS rats: rats subjected to the CUMS protocol but without nutritional or drug interventions. • 3. CUMS HN001: rats subjected to the CUMS protocol and given HN001. • 4. CUMS HN019: rats subjected to the CUMS protocol and given HN019. • 5. CUMS HN001+HN019: rats subjected to the CUMS protocol given both HN001 and HN019. • 6.
(§3) Baseline assessments were then conducted, including blood collection. For the next 40 days, rats in groups 2-6 were exposed to CUMS treatments to induce depression symptoms associated with stress and anxiety.
(§4) Tests were then carried out to assess rat behaviours, such as the open field test and the elevated maze test (see FIG. 2). These are standard ways to measure rat stress and anxiety traits.

[2] = tested on: CUMS rats; assay: Elevated-plus maze test in CUMS rats; assay type: in vivo, rat; details: for Time in Closed Arms in Elevated Plus Maze, After intervention (x ± S) / Total Distance Travelled in Elevated Maze Test, After intervention (x ± S): after CUMS with intervention; for Time in Closed Arms in Elevated Plus Maze, After CUMS (x ± S) / Total Distance Travelled in Elevated Maze Test, After CUMS (x ± S): before intervention; for Time in Closed Arms in Elevated Plus Maze, Base line (x ± S) / Total Distance Travelled in Elevated Maze Test, Base line (x ± S): before CUMS and before intervention
Experimental: as §1, §2, §3, §4

[3] = tested on: TNF-α; assay: TNF-α content in serum, brain and colon of CUMS rats; assay type: in vivo, rat; details: for TNF-α Content, Brain / TNF-α Content, Colon: end of experiment; for TNF-α Content, serum-after intervention: after CUMS with intervention; for TNF-α Content, serum-after CUMS: before intervention
Experimental: as §1, §2, §3
(§5) A series of blood markers were assessed.

[4] = tested on: IL-6; assay: IL-6 content in serum, brain and colon of CUMS rats; assay type: in vivo, rat; details: for IL-6 Content, Brain / IL-6 Content, Colon: end of experiment; for IL-6 Content, serum-after intervention: after CUMS with intervention; for IL-6 Content, serum-after CUMS: before intervention
Experimental: as §1, §2, §3, §5

[5] = tested on: Corticotropin Releasing Hormone (CRH); assay: Serum corticotropin releasing hormone content in CUMS rats; assay type: in vivo, rat; details: for Serum Corticotropin Releasing Hormone (CRH) Content, After intervention: after CUMS with intervention; for Serum Corticotropin Releasing Hormone (CRH) Content, After CUMS: before intervention
Experimental: as §1, §2, §3

[6] = tested on: Adrenocorticotropic Hormone (ACTH); assay: Serum adrenocorticotropic hormone content in CUMS rats; assay type: in vivo, rat; details: for Serum Adrenocorticotropic Hormone (ACTH) Content, After intervention: after CUMS with intervention; for Serum Adrenocorticotropic Hormone (ACTH) Content, After CUMS: before intervention
Experimental: as §1, §2, §3

[7] = Body weight gain of CUMS rats; assay type: in vivo, rat; details: FIG. 3
Experimental: as §1, §2, §3
The reduced weight gain in rats exposed to CUMS was improved by administration of HN001, HN019, or both (FIG. 3). Also, there were no differences in weight gain between CUMS groups.

[8] = tested on: brain and colon tissue; assay: HE staining of brain and colon tissues of CUMS rats; assay type: in vivo, rat; details: brain, FIG. 5
Text: Brain tissues included two regions from the hippocampus (Dentate Gyrus (DG) and CA1) and a region from the cortex (P2).
Brain and colon tissue were stained using the HE method. Brain tissue included two regions from the hippocampus (Dentate Gyrus (DG) and CA1) and a region from the cortex (P2). The results are shown in FIG. 5 and reveal that for the control group, neurons in hippocampal regions (dentate gyrus (DG) and Ca1) and the cortex (P2) were normal, orderly, tightly packed cells. The cells had expected morphology, homogeneous cytoplasmic staining, and no increased interstitial or abnormal changes.
For the colon tissue, control intestinal villi were arranged neatly, with normal cell morphology and no obvious damage was seen.

[9] = tested on: 5-HT, DA, NE, Glu, GABA, HIAA, DOPAC, HVA; assay: Neurotransmitters and their metabolites in serum and brain of CUMS rats; assay type: in vivo, rat; details: FIG. 6
Text: The level of serum and brain 5-HT, DA, NE, Glu and GABA were detected at the end of the experiment (A, B, D, E, G, H, J, K, L). (C), (F) and (I) show the metabolites of monoamine neurotransmitters in brain. The results are presented as the mean±SEM (n=10). #P<0.05 compared with CUMS group.
HIAA, DOPAC and HVA, as the metabolites of 5-HT, DA and NE, were increased in rat brains after CUMS stimulation.

[10] = tested on: intestinal microbiota; assay: 16S rRNA sequencing of faecal samples (gut microbiota) of CUMS rats; assay type: in vivo, rat; details: for CUMS-induced alterations of relative abundance at phylum level: Firmicutes, Bacteroidetes, Verrucomicrobias, Proteobacterias, Actinobacterias; for CUMS-induced changes at genus level: Lactobacillus, Eubacterium coprostanoligenes group, Lachnospiraceae-NK4A136-group; for CUMS-induced changes of relative abundance at family level: Ruminococcaceae, Lactobacillaceae, Lachnospiraceae; for Sobs, ACE, Chao1 and Shannon index (alpha-diversity): compared with CUMS group, FIG. 9; for Beta diversity, PCoA plot: in comparison with CUMS rats, FIG. 10A; for Firmicutes to Bacteroidetes ratio (F/B ratio): increased after CUMS stimulation
Experimental: To evaluate whether probiotics, as well as CUMS, alter intestinal microbiota, 16S rRNA sequencing of faecal samples was performed. Alpha-diversity, as measured by richness (Sobs index, Chao1 index and ACE index; see FIGS. […]), and diversity (Shannon index; see FIG. 9 D), was decreased after CUMS. Beta diversity analysis was evaluated through PCoA to assess differences in microbial composition among six groups (FIG. 10A).

[11] = tested on: Cortisol; assay: Cortisol (HPA axis) after stress; assay type: in vivo; details: stress induced; no data shown

Substance	Total Distance Travelled in Open Field Test, After CUMS only (x ± S) [1]	Vertical Movement (Number of Times Standing Up) in Open Field Test, After intervention (x ± S) [1]	Vertical Movement (Number of Times Standing Up) in Open Field Test, After CUMS (x ± S) [1]	Total Distance Travelled in Open Field Test, After CUMS + intervention (x ± S) [1]	Total Distance Travelled in Open Field Test, Base line (x ± S) [1] [Metres]	Vertical Movement (Number of Times Standing Up) in Open Field Test, Base line (x ± S) [1]	Time in Closed Arms in Elevated Plus Maze, After intervention (x ± S) [2]	Total Distance Travelled in Elevated Maze Test, After intervention (x ± S) [2]	Time in Closed Arms in Elevated Plus Maze, After CUMS (x ± S) [2]	Total Distance Travelled in Elevated Maze Test, After CUMS (x ± S) [2]	Time in Closed Arms in Elevated Plus Maze, Base line (x ± S) [2] [s]	Total Distance Travelled in Elevated Maze Test, Base line (x ± S) [2] [Metres]	TNF-α Content, Brain [3]	TNF-α Content, Colon [3]	TNF-α Content, serum-after intervention [3]	TNF-α Content, serum-after CUMS [3]	IL-6 Content, Brain [4]	IL-6 Content, Colon [4]	IL-6 Content, serum-after intervention [4]	IL-6 Content, serum-after CUMS [4]	also measured
Lactocaseibacillus rhamnosus strain HN001	5.64 ± 2.10^a Metres	13.57 ± 4.39^b	3.43 ± 2.88^a	14.62 ± 7.97^b Metres	23.43 ± 8.42	19.67 ± 6.26	220.28 ± 11.45^b Seconds	8.61 ± 1.63^b Metres	280.00 ± 9.58^a Seconds	3.17 ± 1.88^a Metres	230.69 ± 23.78	8.28 ± 0.81	61.99 ± 5.17^b pg/ml	79.89 ± 11.48^b pg/ml	12.88 ± 4.62^b pg/ml	21.12 ± 6.40^a pg/ml	20.44 ± 3.06v pg/ml	31.56 ± 9.00^b pg/ml	9.96 ± 4.10^b pg/ml	14.01 ± 5.98^a pg/ml	Serum Corticotropin Releasing Hormone (CRH) Content, After intervention [5]: 2.38 ± 1.59^b pg/ml; Serum Corticotropin Releasing Hormone (CRH) Content, After CUMS [5]: 5.53 ± 2.77^a pg/ml; Serum Adrenocorticotropic Hormone (ACTH) Content, After intervention [6]: 3.12 ± 2.52^b pg/ml; Serum Adrenocorticotropic Hormone (ACTH) Content, After CUMS [6]: 5.85 ± 3.35^a pg/ml; Reduced weight gain in rats exposed to CUMS [7]: improved; Morphology of hippocampus (DG, CA1) and cortex (P2) [8]: CUMS-associated damage was largely reduced; Effects of CUMS on neurotransmitters (5-HT, DA, NE, Glu, GABA) and metabolites [9]: able to reverse the effects of CUMS; CUMS-induced alterations of relative abundance at phylum level [10]: alleviated the phylum alterations; CUMS-induced changes at genus level [10]: improved; CUMS-induced changes of relative abundance at family level [10]: reversed the changes of family; Sobs, ACE, Chao1 and Shannon index (alpha-diversity) [10]: decreased; Beta diversity, PCoA plot [10]: marked differences; Firmicutes to Bacteroidetes ratio (F/B ratio) [10]: decreased the F/B ratio; Cortisol level [11]: reduced closer to non-stressed control levels
Bifidobacterium animalis subsp. lactis strain HN019	5.42 ± 3.11^a Metres	11.63 ± 4.90^b	4.50 ± 3.42^a	12.21 ± 2.54^b Metres	24.65 ± 3.59	19.62 ± 6.80	215.28 ± 17.98^b Seconds	7.91 ± 0.65^b Metres	288.83 ± 11.57^a Seconds	3.08 ± 2.21^a Metres	215.83 ± 23.30	9.35 ± 1.38	60.67 ± 6.65^b pg/ml	71.34 ± 10.46^b pg/ml	12.08 ± 3.68^b pg/ml	23.97 ± 3.69^a pg/ml	19.25 ± 4.78^b pg/ml	31.88 ± 7.83^b pg/ml	10.19 ± 4.47^b pg/ml	13.08 ± 4.30^a pg/ml	Serum Corticotropin Releasing Hormone (CRH) Content, After intervention [5]: 2.47 ± 1.34^b pg/ml; Serum Corticotropin Releasing Hormone (CRH) Content, After CUMS [5]: 5.19 ± 3.48^a pg/ml; Serum Adrenocorticotropic Hormone (ACTH) Content, After intervention [6]: 2.13 ± 1.88^b pg/ml; Serum Adrenocorticotropic Hormone (ACTH) Content, After CUMS [6]: 5.53 ± 3.43^a pg/ml; Reduced weight gain in rats exposed to CUMS [7]: improved; Morphology of hippocampus (DG, CA1) and cortex (P2) [8]: CUMS-associated damage was largely reduced; Effects of CUMS on neurotransmitters (5-HT, DA, NE, Glu, GABA) and metabolites [9]: able to reverse the effects of CUMS; CUMS-induced alterations of relative abundance at phylum level [10]: alleviated the phylum alterations; CUMS-induced changes at genus level [10]: improved; CUMS-induced changes of relative abundance at family level [10]: reversed the changes of family; Sobs, ACE, Chao1 and Shannon index (alpha-diversity) [10]: decreased; Beta diversity, PCoA plot [10]: marked differences; Firmicutes to Bacteroidetes ratio (F/B ratio) [10]: decreased the F/B ratio; Cortisol level [11]: reduced closer to non-stressed control levels
